Results published in patent publication US11998616B2, “Nanoparticles for crossing the blood brain barrier and methods of treatment using the same” (California Institute of Technology, priority 2018, dated 2024).
Entries after “also recorded” stand apart in the source; their conditions may differ.

Columns and labels:
BT474-Gluc cells = assay: In vitro sensitivity to CPT of BT474-Gluc cells isolated from brain tumors and parental cells; type: cell-based, human; settings: cells from IC-, ICD-, IV-established tumors and parental cells; dose-response curves
[1] = tested on: human BT474-Gluc breast cancer metastatic brain tumors; assay: Antitumor efficacy, brain tumors established by IC injection; type: in vivo, Rag2−/−; Il2rg−/− mice
Protocol: (§1) For the IC model, 50,000 BT474-Gluc cells in 2 μL RPMI were intracranially injected into the right cerebral hemisphere of female Rag2−/−; Il2rg−/− mice (Jackson Laboratory) using a stereotaxic apparatus at a rate of 0.1 μL/min. The coordinates for injection were 2 mm posterior, 1.5 mm lateral to bregma, and 2.5 mm depth from bregma. For the IV model, 2 M cells were suspended in 150 μL RPMI and slowly injected into the lateral tail vein of restrained female Rag2−/−; Il2rg−/− mice.
(§2) Tumor Size Monitoring. For ICD and IV models, formation of BT474-Gluc brain metastatic tumors was monitored by MRI every third week until macroscopic tumors were visible (˜0.2 mm^3 in volume). Tumor growth was then monitored weekly by MRI, as for the IC model. Mice were anaesthetized with 1.5-2% (v/v) isoflurane in O2 at a flow rate of 1-1.5 mL/min. T2-weighted 3D RARE images were acquired to assess the tumor volume. […] Tumor volume was determined manually from the T2 hyperintense tumor regions of the brain using Fiji software. For the IC model, tumor size was also monitored by measuring the activity of secreted Gluc in the blood. […] Blood was transferred to an opaque 96-well plate (Nunc), and Gluc activity measured using the Pierce Gaussia Luciferase Flash Assay Kit, according to the manufacturer's protocol. Photon counts were acquired for 5 s following addition of coelenterazine using a Safire 2 multi-mode plate reader (Tecan). […]
(§3) Treatments. Treatment began when brain metastatic tumors reached ˜2 mm^3, as measured by MRI. […]
Brain Tumors Show Significant Delay in Growth with TfR-Targeted Nanoparticles, but their Response Differs when Established by Different Methods. […] After IC, ICD or IV injection of BT474-Gluc cells, formation of brain metastatic tumors was monitored by MRI. […] Brain tumor volume was measured weekly by MRI. Blood Gluc activity was measured in addition only for the IC model, due to substantial extracranial tumor burden in the ICD and IV models.

[2] = tested on: human BT474-Gluc breast cancer metastatic brain tumors; assay: Antitumor efficacy, brain tumors established by IV injection; type: in vivo, Rag2−/−; Il2rg−/− mice
Protocol: as §1
Tumor Size Monitoring. For ICD and IV models, formation of BT474-Gluc brain metastatic tumors was monitored by MRI every third week until macroscopic tumors were visible (˜0.2 mm^3 in volume). Tumor growth was then monitored weekly by MRI, as for the IC model. Mice were anaesthetized with 1.5-2% (v/v) isoflurane in O2 at a flow rate of 1-1.5 mL/min. T2-weighted 3D RARE images were acquired to assess the tumor volume. The image acquisition parameters were as follows: echo time: 6.1 ms; repetition time: 250 ms; rapid acquisition relaxation enhanced (RARE) factor: 4; number of averages: 4; field of view: 2.0 cm×1.2 cm×0.8 cm; matrix: 200×120×80 ([…] resolution). Tumor volume was determined manually from the T2 hyperintense tumor regions of the brain using Fiji software. For the IC model, tumor size was also monitored by measuring the activity of secreted Gluc in the blood. […] Blood was transferred to an opaque 96-well plate (Nunc), and Gluc activity measured using the Pierce Gaussia Luciferase Flash Assay Kit, according to the manufacturer's protocol. Photon counts were acquired for 5 s following addition of coelenterazine using a Safire 2 multi-mode plate reader (Tecan). […]
as §3
Development of Mouse Model that Replicates the Metastasis Process in HER2-Positive Breast Cancer Brain Metastasis Patients. […] HER2-positive BT474-Gluc cells were intravenously (IV) injected into Rag2^−/−; Il2rg^−/− mice, and formation of brain metastases was monitored by MRI. […]

[3] = Gross toxicity observation during efficacy studies; type: in vivo, Rag2−/−; Il2rg−/− mice; settings: tail vein injection once per week for 4 weeks
Protocol: Treatments. Treatment began when brain metastatic tumors reached ˜2 mm^3, as measured by MRI. Mice in each model were randomized into […] of six mice per group. CPT at a dose of 4 mg/kg (in 20% DMSO, 20% PEG 400, 30% ethanol, and 30% 10 mM pH 3.5 phosphoric acid), Herceptin at 24 mg/kg (in PBS, pH 7.4), TfR-targeted CPT nanoparticles at 4 mg/kg (CPT basis, in PBS, pH 7.4), TfR-targeted Herceptin nanoparticles at 24 mg/kg (Herceptin basis, in PBS, pH 7.4), and TfR-targeted combination CPT/Herceptin nanoparticles at 4 and 24 mg/kg (CPT and Herceptin bases, respectively, in PBS, pH 7.4) were freshly prepared. The different formulations were systemically administered by lateral tail vein injection once per week for 4 weeks. Injections were standardized to 150 μL per 20 g body weight. The control treatment was 0.9% (w/v) saline.

[4] = tested on: human BT474-Gluc breast cancer metastatic brain tumors; assay: Antitumor efficacy, brain tumors established by ICD injection; type: in vivo, Rag2−/−; Il2rg−/− mice
Protocol: Intracardiac (ICD) Brain Metastasis Model. All animals were treated according to the NIH guidelines for animal care and use as approved by the Caltech Institutional Animal Care and Use Committee. BT474-Gluc cells, transduced with an expression cassette encoding Gluc and CFP separated by an internal ribosomal entry site using a lentiviral vector, were obtained from Dr. Jain at Harvard University. BT474-Gluc cells were maintained in RPMI 1640 supplemented with 10% (v/v) FBS in a humidified oven at 37° C. with 5% CO2. 100,000 BT474-Gluc cells were suspended in 100 μL of RPMI and slowly injected into the left ventricle of female Rag2−/−; Il2rg−/− mice. Injections were performed blind, midway between the sternal notch and top of xyphoid process, and 13% anatomical left of sternum. Successful insertion into the left cardiac ventricle was confirmed by a bright red pulse of blood in the syringe.
as §2, with “mL/min.” for “mL/min. T2-weighted 3D RARE images were acquired to assess the tumor volume.”
as §3
Brain Tumors Show Significant Delay in Growth with TfR-Targeted Nanoparticles, but their Response Differs when Established by Different Methods. […] After IC, ICD or IV injection of BT474-Gluc cells, formation of brain metastatic tumors was monitored by MRI. […]

[5] = Brain uptake of therapeutics in tumor and healthy brain tissue by HPLC; type: in vivo, Rag2−/−; Il2rg−/− mice; settings: IC-established brain tumors; 24 h after 4 mg/kg dose (CPT basis)
Protocol: Brain Uptake of Therapeutics Differs in Tumor, but not Healthy Tissue between Models. To ascertain whether differences in brain penetration of the therapeutics might explain the discordance in efficacy between brain metastasis models, we systemically administered an additional dose of each treatment at the end of the efficacy study. After 24 h, mice were anesthetized and perfused with PBS to clear any remaining nanoparticles or free drug from the bloodstream. Drug uptake into tumor and healthy brain tissue was quantified by HPLC as previously described.

[6] = 4 mg/kg (CPT basis) weekly x4, end of the study

Question: Which “sensitivity of cells to CPT in vitro” value (BT474-Gluc cells) does the source give for CC[C@@]1(O)C(=O)OCc2c1cc1n(c2=O)Cc2cc3ccccc3nc2-1 [CPT, camptothecin] here?
Answer: The value was “comparable sensitivities to CPT; also recorded: similarly sensitive to CPT”.

Question: And the Mean tumor volume ([1]; 4 mg/kg (CPT basis) tail vein once per week for 4 weeks, end of the study)?
Answer: Its Mean tumor volume is 39 mm^3.

Question: And the Median tumor volume [1, 6]?
Answer: The Median tumor volume was 39 mm^3.

Question: And the “decrease in mean tumor volume compared to saline” value ([1]; end of the study)?
Answer: Its value is 2.6 fold.

Question: What about the Mean tumor volume [2, 6] of the same compound?
Answer: Its Mean tumor volume is 86 mm^3.

Question: What about the Median tumor volume [2, 6] of the same compound?
Answer: The Median tumor volume was 86 mm^3.

Question: And the “tumor growth inhibition” value ([2]; compared to saline)?
Answer: Its value is “no tumor growth inhibition”.

Question: And the “gross signs of toxicity” value [3]?
Answer: Its value is “animals did have reactions to dosing”.

Question: What about the Mean tumor volume [4, 6] of the same compound?
Answer: The Mean tumor volume was 69 mm^3.

Question: And the Median tumor volume [4, 6]?
Answer: The Median tumor volume was 71 mm^3.

Question: And the “tumor growth response” value ([4]; compared to saline)?
Answer: The value was “modest response”.

Question: And the “accumulation in tumor tissue” value [5]?
Answer: The value was “significant accumulation”.
